We go through 41 compounds from patent US7977322B2 (Vertex Pharmaceuticals Incorporated, priority 2004, dated 2011).

The structures appear in SMILES notation.

The experiment addresses T1, ΔF508-CFTR (Homo sapiens, UniProt P13569, DEL508-508).
T1 construct: expressed in transfected cells
In words: Membrane potential optical (FRET/VIPR) assay, identification of correction compounds. It is filed as cell-based. Conditions: Table 3, assay not given; for Emax: read-out: % Activity / % Efficacy (relative efficacy). From the text:
I) Membrane Potential Optical Methods for Assaying ΔF508-CFTR Modulation Properties of Compounds
These voltage sensitive assays are based on the change in fluorescence resonant energy transfer (FRET) between the membrane-soluble, voltage-sensitive dye, DiSBAC2(3), and a fluorescent phospholipid, CC2-DMPE, which is attached to the outer leaflet of the plasma membrane and acts as a FRET donor. Changes in membrane potential (Vm) cause the negatively charged DiSBAC2(3) to redistribute across the plasma membrane and the amount of energy transfer from CC2-DMPE changes accordingly. The changes in fluorescence emission were monitored using VIPR™ II, which is an integrated liquid handler and fluorescent detector designed to conduct cell-based screens in 96- or 384-well microtiter plates.
Identification of Correction Compounds
To identify small molecules that correct the trafficking defect associated with ΔF508-CFTR; a single-addition HTS assay format was developed. The cells were incubated in serum-free medium for 16 hrs at 37° C. in the presence or absence (negative control) of test compound. As a positive control, cells plated in 384-well plates were incubated for 16 hrs at 27° C. to “temperature-correct” ΔF508-CFTR. The cells were subsequently rinsed 3× with Krebs Ringers solution and loaded with the voltage-sensitive dyes. To activate ΔF508-CFTR, 10 μM forskolin and the CFTR potentiator, genistein (20 μM), were added along with Cl^− free medium to each well. The addition of Cl^− free medium promoted Cl^− efflux in response to ΔF508-CFTR activation and the resulting membrane depolarization was optically monitored using the FRET-based voltage-sensor dyes.
• Bath Solution #1: (in mM) NaCl 160, KCl 4.5, CaCl2 2, MgCl2 1, HEPES 10, pH 7.4 with NaOH. • Chloride-free bath solution: Chloride salts in Bath Solution #1 are substituted with gluconate salts. • CC2-DMPE: Prepared as a 10 mM stock solution in DMSO and stored at −20° C. • DiSBAC2(3): Prepared as a 10 mM stock in DMSO and stored at −20° C.
NIH3T3 mouse fibroblasts stably expressing ΔF508-CFTR are used for optical measurements of membrane potential. The cells are maintained at 37° C. in 5% CO2 and 90% humidity in Dulbecco's modified Eagle's medium supplemented with 2 mM glutamine, 10% fetal bovine serum, 1×NEAA, β-ME, 1×pen/strep, and 25 mM HEPES in 175 cm^2 culture flasks. For all optical assays, the cells were seeded at 30,000/well in 384-well matrigel-coated plates and cultured for 2 hrs at 37° C. before culturing at 27° C. for 24 hrs. for the potentiator assay.

T1 sequence (P13569 with tags, fused parts or gaps DEL508-508): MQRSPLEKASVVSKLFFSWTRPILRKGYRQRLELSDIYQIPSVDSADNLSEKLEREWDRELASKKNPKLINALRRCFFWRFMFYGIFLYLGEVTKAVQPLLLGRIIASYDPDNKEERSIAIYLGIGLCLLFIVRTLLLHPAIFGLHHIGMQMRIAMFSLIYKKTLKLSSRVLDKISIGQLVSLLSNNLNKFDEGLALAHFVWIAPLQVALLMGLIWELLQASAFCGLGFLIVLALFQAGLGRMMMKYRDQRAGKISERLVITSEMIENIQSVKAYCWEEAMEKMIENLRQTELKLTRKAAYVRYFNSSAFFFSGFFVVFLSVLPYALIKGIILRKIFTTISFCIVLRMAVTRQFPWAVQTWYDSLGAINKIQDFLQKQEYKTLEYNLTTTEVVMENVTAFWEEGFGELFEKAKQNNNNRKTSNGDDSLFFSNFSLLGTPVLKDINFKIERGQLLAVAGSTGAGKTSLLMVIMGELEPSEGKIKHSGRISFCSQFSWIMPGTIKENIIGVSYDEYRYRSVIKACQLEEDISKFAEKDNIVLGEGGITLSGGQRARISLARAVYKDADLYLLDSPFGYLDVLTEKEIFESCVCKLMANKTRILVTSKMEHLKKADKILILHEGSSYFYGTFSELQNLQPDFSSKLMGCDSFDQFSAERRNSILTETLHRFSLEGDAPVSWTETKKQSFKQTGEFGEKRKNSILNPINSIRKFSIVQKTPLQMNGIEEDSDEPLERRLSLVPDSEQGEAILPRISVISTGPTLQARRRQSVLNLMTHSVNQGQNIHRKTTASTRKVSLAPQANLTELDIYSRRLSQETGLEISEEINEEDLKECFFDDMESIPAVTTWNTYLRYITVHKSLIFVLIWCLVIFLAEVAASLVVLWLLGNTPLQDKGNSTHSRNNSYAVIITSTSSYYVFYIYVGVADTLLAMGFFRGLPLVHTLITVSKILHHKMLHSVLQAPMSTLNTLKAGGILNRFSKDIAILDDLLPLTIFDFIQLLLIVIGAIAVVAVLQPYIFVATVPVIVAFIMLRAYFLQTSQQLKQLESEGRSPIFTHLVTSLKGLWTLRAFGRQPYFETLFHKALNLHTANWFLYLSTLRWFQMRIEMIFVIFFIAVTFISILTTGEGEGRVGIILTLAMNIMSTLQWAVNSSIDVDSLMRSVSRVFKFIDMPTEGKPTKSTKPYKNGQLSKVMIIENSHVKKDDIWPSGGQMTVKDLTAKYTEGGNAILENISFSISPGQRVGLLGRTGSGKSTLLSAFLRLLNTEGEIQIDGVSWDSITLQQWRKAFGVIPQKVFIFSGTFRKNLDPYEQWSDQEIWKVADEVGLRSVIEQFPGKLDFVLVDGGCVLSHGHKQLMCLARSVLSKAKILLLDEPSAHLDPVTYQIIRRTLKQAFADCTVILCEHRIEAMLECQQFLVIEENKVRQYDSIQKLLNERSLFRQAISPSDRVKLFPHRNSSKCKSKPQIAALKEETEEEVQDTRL

On to `COc1ccc(C2(C(=O)Nc3ncc(Sc4ccc(N)cc4)s3)CC2)cc1` [Example 96], for which the “% Activity / % Efficacy (relative efficacy)” value is listed as “++ (“++” means between 25% to 100%)” and the EC50 (as a rule, the concentration needed to bring the measured effect to its halfway point) is < 10 µM.
On the same counts, the results for `COc1ccc(C2(C(=O)Nc3ncc(Sc4cccc(C(=O)O)c4)s3)CC2)cc1` [Example 97] are “+++ (“+++” means>100%)” and < 10 µM.
On the same counts, the results for `Nc1ccccc1Sc1cnc(NC(=O)C2(c3ccc4c(c3)OCO4)CC2)s1` [Example 98] are “+++ (“+++” means>100%)” and < 10 µM.
`COc1ccccc1Sc1cnc(NC(=O)C2(c3ccc4c(c3)OCO4)CC2)s1` [Example 99]: the “% Activity / % Efficacy (relative efficacy)” value is reported as “+++ (“+++” means>100%)” and the EC50 is < 10 µM.
With `Nc1ccc(Sc2cnc(NC(=O)C3(c4ccc5c(c4)OCO5)CC3)s2)cc1` [Example 100], the “% Activity / % Efficacy (relative efficacy)” value is given as “++ (“++” means between 25% to 100%)” and the EC50 is < 10 µM.
On the same counts, the results for `O=C(O)c1ccccc1Sc1cnc(NC(=O)C2(c3ccc4c(c3)OCO4)CC2)s1` [Example 101] are “+++ (“+++” means>100%)” and < 10 µM.
As for `O=C(Nc1ncc(Sc2cccc(Cl)c2)s1)C1(c2ccc3c(c2)OCO3)CC1` [Example 102], the EC50 was < 10 µM and the Emax was > 100%.
Take `O=C(Nc1ncc(Sc2ccc(Cl)cc2)s1)C1(c2ccc3c(c2)OCO3)CC1` [Example 103]: the “% Activity / % Efficacy (relative efficacy)” value is listed as “++ (“++” means between 25% to 100%)” and the EC50 fell in the range of 25 to 60 µM.
For `COc1ccc(C2(C(=O)Nc3ncc(Sc4ccccc4C(=O)O)s3)CC2)cc1` [Example 104], in that order: “+++ (“+++” means>100%)” and < 10 µM.
On the same counts, the results for `O=C(Nc1ncc(Sc2ccccc2)s1)C1(c2ccc3c(c2)OCO3)CC1` [Example 105] are “+++ (“+++” means>100%)” and < 10 µM.
Turning to `O=C(O)c1cccc(Sc2cnc(NC(=O)C3(c4ccc5c(c4)OCO5)CC3)s2)c1` [Example 106], the “% Activity / % Efficacy (relative efficacy)” value is reported as “+++ (“+++” means>100%)” and the EC50 is < 10 µM.
As for `CC(=O)c1sc(NC(=O)C2(c3ccc4c(c3)OCO4)CC2)nc1C` [Example 107], the “% Activity / % Efficacy (relative efficacy)” value is given as “+++ (“+++” means>100%)” and the EC50 is < 10 µM.
In the case of `CCCc1nc(NC(=O)C2(c3ccc4c(c3)OCO4)CC2)sc1C(=O)OCC` [Example 108], the EC50 was < 10 µM and the Emax is > 100%.
For the compound `CCOC(=O)c1sc(NC(=O)C2(c3ccc4c(c3)OCO4)CC2)nc1C(C)C` [Example 109], the “% Activity / % Efficacy (relative efficacy)” value is “+++ (“+++” means>100%)” and the EC50 is < 10 µM.
On the same counts, the results for `O=C(Nc1nc2c(s1)-c1ccccc1CC2)C1(c2ccc3c(c2)OCO3)CC1` [Example 110] are “+++ (“+++” means>100%)” and < 10 µM.
On to `O=C(Nc1ncc(C2(c3ccccc3)CCCC2)s1)C1(c2ccc3c(c2)OCO3)CC1` [Example 111], for which the “% Activity / % Efficacy (relative efficacy)” value is “+++ (“+++” means>100%)” and the EC50 was < 10 µM.
For `COc1ccccc1-c1csc(NC(=O)C2(c3ccc4c(c3)OCO4)CC2)n1` [Example 112], in that order: “+ (“+” means<25%)” and 10 to 25 µM.
For `COc1ccc(OC)c(-c2csc(NC(=O)C3(c4ccc5c(c4)OCO5)CC3)n2)c1` [Example 113], in that order: “+++ (“+++” means>100%)” and < 10 µM.
For `COc1cccc(-c2csc(NC(=O)C3(c4ccc5c(c4)OCO5)CC3)n2)c1` [Example 114], in that order: “+++ (“+++” means>100%)” and < 10 µM.
Regarding `O=C(Nc1nc(-c2ccc(Cl)c(Cl)c2)cs1)C1(c2ccc3c(c2)OCO3)CC1` [Example 117], the EC50 lay within 10 to 25 µM and the Emax lay in the range of 25 to 100%.
Take `CS(=O)(=O)c1ccc(-c2csc(NC(=O)C3(c4ccc5c(c4)OCO5)CC3)n2)cc1` [Example 119]: the “% Activity / % Efficacy (relative efficacy)” value was “++ (“++” means between 25% to 100%)” and the EC50 was < 10 µM.
For `CCN(CC)c1ccc(-c2csc(NC(=O)C3(c4ccc5c(c4)OCO5)CC3)n2)cc1` [Example 120], in that order: “+++ (“+++” means>100%)” and < 10 µM.
As to `COc1ccc(C2(C(=O)Nc3nc(-c4ccccc4OC)cs3)CC2)cc1` [Example 121], the EC50 was < 10 µM and the Emax is > 100%.
`COc1ccc(C2(C(=O)Nc3nc(-c4cccc(OC)c4)cs3)CC2)cc1` [Example 122]: the “% Activity / % Efficacy (relative efficacy)” value is on record as “+++ (“+++” means>100%)” and the EC50 is < 10 µM.
For the compound `COc1ccc(C2(C(=O)Nc3nc(-c4cccc(Cl)c4)cs3)CC2)cc1` [Example 123], the “% Activity / % Efficacy (relative efficacy)” value was “+++ (“+++” means>100%)” and the EC50 was < 10 µM.
Regarding `COc1ccc(C2(C(=O)Nc3nc(-c4ccc(Cl)c(Cl)c4)cs3)CC2)cc1` [Example 124], the “% Activity / % Efficacy (relative efficacy)” value is listed as “++ (“++” means between 25% to 100%)” and the EC50 fell in the range of 25 to 60 µM.
On the same counts, the results for `COc1ccc(C2(C(=O)Nc3nc(-c4ccc(S(C)(=O)=O)cc4)cs3)CC2)cc1` [Example 125] are “+++ (“+++” means>100%)” and < 10 µM.
Take `O=C(Nc1nc(-c2ccc(Cl)cc2Cl)cs1)C1(c2ccc3c(c2)OCO3)CC1` [Example 126]: the “% Activity / % Efficacy (relative efficacy)” value is “+++ (“+++” means>100%)” and the EC50 was < 10 µM.
For `Cc1ccc(-c2csc(NC(=O)C3(c4ccc5c(c4)OCO5)CC3)n2)c(C)c1` [Example 127], in that order: “+++ (“+++” means>100%)” and < 10 µM.
Consider `O=C(Nc1ncc(C(SCCCCO)c2ccccc2Cl)s1)C1(c2ccc3c(c2)OCO3)CC1` (stereo not drawn) [Example 131], for which the EC50 is < 10 µM.
Consider `O=C(c1cnc(NC(=O)C2(c3ccc4c(c3)OCO4)CC2)s1)c1ccccc1Cl` [Example 136], for which the “% Activity / % Efficacy (relative efficacy)” value was “+++ (“+++” means>100%)” and the EC50 is < 10 µM.
As to `COc1ccc(C2(C(=O)Nc3ncc(Cc4cccc(Cl)c4)o3)CC2)cc1` [Example 153], the “% Activity / % Efficacy (relative efficacy)” value is on record as “++ (“++” means between 25% to 100%)” and the EC50 was < 10 µM.
Take `COc1ccc(C2(C(=O)Nc3ncc(Cc4ccccc4OC)o3)CC2)cc1` [Example 156]: the EC50 was < 10 µM and the Emax is > 100%.
`O=C(Nc1ncc(Cc2cccc(F)c2Cl)s1)C1(c2ccc3c(c2)OCO3)CC1` [Example 159]: the “% Activity / % Efficacy (relative efficacy)” value was “+++ (“+++” means>100%)” and the EC50 is < 10 µM.
For `O=C(Nc1ncc(Cc2cccc(Cl)c2)o1)C1(c2ccc3c(c2)OCO3)CC1` [Example 166], in that order: “+++ (“+++” means>100%)” and < 10 µM.
Consider `COc1ccccc1Cc1cnc(NC(=O)C2(c3ccc4c(c3)OCO4)CC2)o1` [Example 169], for which the “% Activity / % Efficacy (relative efficacy)” value is “++ (“++” means between 25% to 100%)” and the EC50 is < 10 µM.
For `COc1ccccc1Cc1cnc(NC(=O)C2(c3ccc(SC)cc3)CC2)s1` [Example 173], the “% Activity / % Efficacy (relative efficacy)” value is listed as “+++ (“+++” means>100%)” and the EC50 was < 10 µM.
Regarding `O=C(Nc1ncc(Cc2ccccc2Cl)s1)C1(c2ccc(OC(F)(F)F)cc2)CC1` [Example 174], the “% Activity / % Efficacy (relative efficacy)” value is given as “+++ (“+++” means>100%)” and the EC50 is < 10 µM.
With `CSc1ccc(C2(C(=O)Nc3ncc(Cc4ccccc4Cl)s3)CC2)cc1` [Example 175], the “% Activity / % Efficacy (relative efficacy)” value is “+++ (“+++” means>100%)” and the EC50 was < 10 µM.
For the compound `COc1ccc(C2(C(=O)Nc3ncc(Cc4cccnc4OC)s3)CC2)cc1` [Example 176], the “% Activity / % Efficacy (relative efficacy)” value is reported as “+++ (“+++” means>100%)” and the EC50 is < 10 µM.
On the same counts, the results for `COc1ccc(C2(C(=O)Nc3ncc(Cc4cc(F)ccc4OC)s3)CC2)cc1` [Example 179] are “+++ (“+++” means>100%)” and < 10 µM.
